Data published in patent US20180110754A1, “CENICRIVIROC FOR THE TREATMENT OF FIBROSIS” (Tobira Therapeutics, Inc., priority 2015, published 2018).

Key:
[1] = system: STAM mouse model of Non-alcoholic Steatohepatitis; assay: STAM mouse model of NASH, week 9 (anti-NASH/fibrosis effects); format: in vivo
Method: NASH was induced in male mice by a single injection of 200 μg streptozotocin 2 days after birth (causing impaired glucose control), followed by a high fat diet from 4 weeks of age. […] Animals were sacrificed at 9 weeks of age, and biochemical, gene expression, and histologic evaluations of the liver were conducted.

[2] = biological target: CCR4 (Homo sapiens, UniProt P51679); assay: Inhibition of ligand binding to CCR4
CCR4, sequence (P51679 whole entry): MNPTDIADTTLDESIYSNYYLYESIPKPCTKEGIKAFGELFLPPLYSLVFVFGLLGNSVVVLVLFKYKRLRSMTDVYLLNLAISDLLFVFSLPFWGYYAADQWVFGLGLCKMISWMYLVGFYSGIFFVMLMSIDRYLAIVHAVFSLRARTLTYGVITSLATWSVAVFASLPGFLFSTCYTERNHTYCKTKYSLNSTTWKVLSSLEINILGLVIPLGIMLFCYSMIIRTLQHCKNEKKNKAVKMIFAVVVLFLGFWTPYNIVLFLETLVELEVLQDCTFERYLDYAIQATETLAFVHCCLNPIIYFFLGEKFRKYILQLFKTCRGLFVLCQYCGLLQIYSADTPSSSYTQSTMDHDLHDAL

[3] = biological target: CCR7 (Homo sapiens, UniProt P32248); assay: Inhibition of ligand binding to CCR7
CCR7, sequence (P32248 25-378): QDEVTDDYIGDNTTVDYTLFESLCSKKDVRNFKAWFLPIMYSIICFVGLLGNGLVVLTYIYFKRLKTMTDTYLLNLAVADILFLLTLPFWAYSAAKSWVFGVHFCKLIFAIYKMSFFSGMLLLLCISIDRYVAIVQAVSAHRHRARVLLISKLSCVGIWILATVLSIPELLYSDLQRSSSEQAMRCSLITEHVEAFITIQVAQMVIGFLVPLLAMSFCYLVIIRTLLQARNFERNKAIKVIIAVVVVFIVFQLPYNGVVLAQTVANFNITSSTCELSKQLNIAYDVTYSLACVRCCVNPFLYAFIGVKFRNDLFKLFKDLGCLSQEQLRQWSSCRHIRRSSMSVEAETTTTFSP

[4] = system: RANTES-induced Ca2+ mobilization; assay: RANTES-induced Ca2+ mobilization; format: cell-based
[5] = system: MCP-1; assay: Study 201: MCP-1, hs-CRP and IL-6 levels; format: in vivo, human
Method: Participants were required to be antiretroviral treatment-experienced, CCR5 antagonist-naive, with HIV-1 RNA levels of at least 5000 copies/mL and CD4+ cell counts of at least 250 cells/mm^3 was performed.
Exploratory assessment of changes in MCP-1 (a ligand of CCR2, which is a chemokine co-receptor expressed on pro-inflammatory monocytes, also known as CCL2), hs-CRP, and IL-6 were performed and significant dose-dependent increases in MCP-1 were observed (Table 23).

[6] = CVC-low 20 mg/kg/day, week 9, listed as Cenicriviroc

## CCCCOCCOc1ccc(-c2ccc3c(c2)/C=C(/C(=O)Nc2ccc([S@@+]([O-])Cc4cncn4CCC)cc2)CCCN3CC(C)C)cc1 [CVC, (S)-8-[4-(2-Butoxyethoxy)phenyl]-1-isobutyl-N-(4-{[(1-propyl-1H-imidazol-5-yl)methyl]sulfinyl}phenyl)-1,2,3,4-tetrahydro-1-benzazocine-5-carboxamide]
[1]; [6]
  Body weight: 19.5 ± 2.0 g
  F4/80-positive area (inflammation area): 4.77 ± 1.02%
  F4/80 and CD16/32-positive cells: 38.7 ± 7.6%
  F4/80 and CD206-positive cells: 34.7 ± 6.3%
  Liver hydroxyproline: 0.63 ± 0.05 μg/mg total protein
  Liver triglyceride: 48.5 ± 16.1 mg/g liver
  Liver weight: 1334 ± 99 mg
  NAFLD Activity Score (NAS): 4.0 ± 0.6
  Oil red-positive area (fat deposition area): 6.51 ± 3.88%
  Plasma ALT: 58 ± 12 U/L
  Plasma MCP-1: 68 ± 16 pg/mL
  Plasma MIP-1β: 18 ± 2 pg/mL
  TUNEL-positive cells: 43.3 ± 2.9%
  Whole blood glucose: 585 ± 91 mg/dL
[1]; CVC-low 20 mg/kg/day, week 9, perivascular space included, listed as Cenicriviroc
  Sirius red-positive area (fibrosis area): 0.66 ± 0.16%
[1]; CVC-low 20 mg/kg/day, week 9, perivascular space subtracted, listed as Cenicriviroc
  Modified Sirius red-positive area: 0.29 ± 0.14%
[1]; CVC-low, week 9, n=6
  Number of animals with Hepatocyte ballooning score 1: 3
  Number of animals with Hepatocyte ballooning score 2: 3
  Number of animals with Lobular inflammation score 1: 3
  Number of animals with Lobular inflammation score 2: 3
  Number of animals with Steatosis score 1: 6
[1]; high dose 100 mg/kg/day, week 9
  Increase in plasma monocyte chemotactic protein-1 levels: 1.5 fold
[1]; low dose 20 mg/kg/day, week 9
  Increase in plasma monocyte chemotactic protein-1 levels: 1.1 fold
[2]
  Inhibition of ligand binding to CCR4: only weakly inhibited
[3]
  Inhibition of ligand binding to CCR7: did not inhibit
[4]
  Effect on RANTES-induced Ca2+ mobilization: blocked
[5]; 10-day study, overall
  Effect on hs-CRP or IL-6 levels: no effect
[5]; CVC 25 mg
  MCP-1 Baseline, Mean: 20.0 pg/mL
  MCP-1 Baseline, Median: 16.0 pg/mL
  MCP-1 Baseline, Range: 7 to 44 pg/mL
  MCP-1 Change from Baseline to Day 10, Median: +25.0 pg/mL
  MCP-1 Day 10, Mean: 75.3 pg/mL
  MCP-1 Day 10, Median: 39.0 pg/mL
  MCP-1 Day 10, Range: 10 to 287 pg/mL
[5]; CVC 50 mg
  MCP-1 Baseline, Mean: 12.6 pg/mL
  MCP-1 Baseline, Median: 6.0 pg/mL
  MCP-1 Baseline, Range: 5 to 37 pg/mL
  MCP-1 Change from Baseline to Day 10, Median: +56.0 pg/mL
  MCP-1 Day 10, Mean: 101.3 pg/mL
  MCP-1 Day 10, Median: 65.0 pg/mL
  MCP-1 Day 10, Range: 21 to 266 pg/mL
[5]; CVC 75 mg
  MCP-1 Baseline, Mean: 26.6 pg/mL
  MCP-1 Baseline, Median: 8.0 pg/mL
  MCP-1 Baseline, Range: 5 to 92 pg/mL
  MCP-1 Change from Baseline to Day 10, Median: +36.0 pg/mL
  MCP-1 Day 10, Mean: 59.1 pg/mL
  MCP-1 Day 10, Median: 43.5 pg/mL
  MCP-1 Day 10, Range: 20 to 128 pg/mL
[5]; CVC 150 mg
  MCP-1 Baseline, Mean: 31.6 pg/mL
  MCP-1 Baseline, Median: 19.5 pg/mL
  MCP-1 Baseline, Range: 8 to 82 pg/mL
  MCP-1 Change from Baseline to Day 10, Median: +322.0 pg/mL
  MCP-1 Day 10, Mean: 372.0 pg/mL
  MCP-1 Day 10, Median: 368.0 pg/mL
  MCP-1 Day 10, Range: 79 to 605 pg/mL
